The structures appear in SMILES notation.

In this test the target is T1, recombinant human 11 β-HSD1 (Homo sapiens, UniProt P28845).
T1 construct: made in house; host or cells: E. coli
T1 sequence (P28845 whole entry): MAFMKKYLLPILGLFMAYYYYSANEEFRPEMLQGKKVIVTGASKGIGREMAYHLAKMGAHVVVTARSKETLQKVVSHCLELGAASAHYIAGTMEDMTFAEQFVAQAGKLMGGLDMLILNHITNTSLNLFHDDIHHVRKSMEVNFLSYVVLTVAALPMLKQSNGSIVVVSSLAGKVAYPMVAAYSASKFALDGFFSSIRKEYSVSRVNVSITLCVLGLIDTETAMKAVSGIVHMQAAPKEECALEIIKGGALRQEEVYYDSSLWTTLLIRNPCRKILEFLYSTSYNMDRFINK
Put plainly: 11 β-HSD1 SPA Assay (Scintillation Proximity Assay). It is filed as biochemical. The gist of the method:
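Scintillation proximity read-out of cortisol formed from 40 nM [3H]cortisone by purified recombinant human enzyme (30-100 nM, E. coli) with 1 mM NADPH, pH7.4, 2 hours at room temperature; beads with cortisol antibody and glycyrrhetinic acid stop the reaction, read next day. IC50 derived from inhibition normalised to background and maximal wells.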
Consider `CC(C)(Oc1ccc(Cl)cc1)C(=O)N[C@H]1C[C@H]2CC[C@@H](C1)N2c1ccc(S(C)(=O)=O)cn1` [Example 201, 2-[(4-chlorophenyl)oxy]-2-methyl-N-{8-[5-(methylsulfonyl)pyridin-2-yl]-8-azabicyclo[3.2.1]oct-3-endo-yl}propanamide], for which the IC50 is less than 200 nM.

As to `CC(C)(Oc1ccc(Cl)cc1Cl)C(=O)N[C@H]1C[C@H]2CC[C@@H](C1)N2Cc1ccc(C(N)=O)cn1` [Example 323, 6-{[3-endo-({2-[(2,4-dichlorophenyl)oxy]-2-methylpropanoyl}amino)-8-azabicyclo[3.2.1]oct-8-yl]methyl}pyridine-3-carboxamide], the IC50 was less than 2000 nM.

Regarding `CC(C)(Oc1ccc(F)c(Cl)c1)C(=O)N[C@H]1C[C@H]2CC[C@@H](C1)N2c1ccc(S(C)(=O)=O)cc1` [Example 228, 2-[(3-chloro-4-fluorophenyl)oxy]-2-methyl-N-{8-[4-(methylsulfonyl)phenyl]-8-azabicyclo[3.2.1]oct-3-endo-yl}propanamide], the 50% inhibitory concentration (IC50) was less than 2000 nM.

`NC(=O)c1ccc(N2[C@@H]3CC[C@H]2C[C@@H](NC(=O)C2(c4ccc(Cl)c(Cl)c4)CC2)C3)nc1` [Example 103, 6-[3-endo-({[1-(3,4-dichiorophenyl)cyclopropyl]carbonyl}amino)-8-azabicyclo[3.2.1]oct-8-yl]pyridine-3-carboxamide]: the 50% inhibitory concentration (IC50) was less than 200 nM.

Consider `O=C(NCC(F)(F)F)c1ccc(N2[C@@H]3CC[C@H]2C[C@@H](NC(=O)C2(c4ccc(Cl)cc4)CC2)C3)nc1` [Example 22, 6-[3-endo-({[1-(4-chlorophenyl)cyclopropyl]carbonyl}amino)-8-azabicyclo[3.2.1]oct-8-yl]-N-(2,2,2-trifluoroethyl)pyridine-3-carboxamide], for which the IC50 was less than 200 nM.

For the molecule `CC(C)(Oc1ccc(F)c(F)c1)C(=O)N[C@H]1C[C@H]2CC[C@@H](C1)N2c1ccc(S(C)(=O)=O)cc1` [Example 209, 2-[(3,4-difluorophenyl)oxy]-2-methyl-N-{8-[4-(methylsulfonyl)phenyl]-8-azabicyclo[3.2.1]oct-3-endo-yl}propanamide], the IC50 is less than 2000 nM.

Consider `CC(C)(C(=O)N[C@H]1C[C@H]2CC[C@@H](C1)N2c1ccc(C(=O)NC2CC2)cn1)c1ccccc1Cl` [Example 34, 6-(3-endo-{[2-(2-chlorophenyl)-2-methylpropanoyl]amino}-8-azabicyclo[3.2.1]oct-8-yl)-N-cyclopropylpyridine-3-carboxamide], for which the IC50 was less than 200 nM.

Regarding `CC(C)(Oc1ccc(Cl)cc1N1CCOCC1)C(=O)N[C@H]1C[C@H]2CC[C@@H](C1)N2c1ccc(C(=O)NCC(F)(F)F)cn1` [Example 359, 6-[3-endo-({2-[4-chloro-2-(morpholin-4-yl)phenoxy]-2-methylpropanoyl}amino)-8-azabicyclo[3.2.1]oct-8-yl]-N-(2,2,2-trifluoroethyl)pyridine-3-carboxamide], the IC50 was less than 200 nM.

Consider `CC(C)NC(=O)c1ccc(N2[C@@H]3CC[C@H]2C[C@@H](NC(=O)C(C)(C)Oc2ccc(Cl)cc2)C3)nc1` [Example 30, 6-[3-endo-({2-[(4-chlorophenyl)oxy]-2-methylpropanoyl}amino)-8-azabicyclo[3.2.1]oct-8-yl]-N-(1-methylethyl)pyridine 3-carboxamide], for which the IC50 was less than 200 nM.

Consider `COCCNC(=O)c1ccc(N2[C@@H]3CC[C@H]2C[C@@H](NC(=O)C(C)Oc2ccc(Cl)cc2Cl)C3)nc1` (stereo partly drawn) [Example 68, 6-[3-endo-({2-[(2,4-dichlorophenyl)oxy]propanoyl}amino)-8-azabicyclo[3.2.1]oct-8-yl]-N-[2-(methyloxy)ethyl]pyridine-3-carboxamide], for which the IC50 is less than 2000 nM.

As for `CC(C)(Oc1c(Cl)cc(F)cc1Cl)C(=O)N[C@H]1C[C@H]2CC[C@@H](C1)N2c1ccc(S(C)(=O)=O)cn1` [Example 178, 2-[(2,6-dichloro-4-fluorophenyl)oxy]-2-methyl-N-{8-[5-(methylsulfonyl)pyridin-2-yl]-8-azabicyclo[3.2.1]oct-3-endo-yl}propanamide], the IC50 was less than 200 nM.

With `CC(C)(Oc1cc(Cl)c(F)cc1Cl)C(=O)N[C@H]1C[C@H]2CC[C@@H](C1)N2c1ccc(C(=O)NCC(F)(F)F)cn1` [Example 98, 6-[3-endo-({2-[(2,5-dichloro-4-fluorophenyl)oxy]-2-methylpropanoyl}amino)-8-azabicyclo[3.2.1]oct-8-yl]-N-(2,2,2-trifluoroethyl)pyridine-3-carboxamide], the IC50 was less than 200 nM.

Consider `CC(C)(Oc1ncc(F)cc1C(F)F)C(=O)N[C@H]1C[C@H]2CC[C@@H](C1)N2c1ccc(C(=O)NCC(F)F)cn1` [Example 440, N-(2,2-difluoroethyl)-6-{3-endo-[(2-{[3-(difluoromethyl)-5-fluoropyridin-2-yl]oxy}-2-methylpropanoyl)amino]-8-azabicyclo[3.2.1]oct-8-yl}pyridine-3-carboxamide], for which the concentration for half-maximal inhibition (IC50) is less than 200 nM.

Regarding `CC(C)(Oc1ccc(Cl)cc1Cl)C(=O)N[C@H]1C[C@H]2CC[C@@H](C1)N2c1ccc(C(=O)NCC(=O)C(F)(F)F)cn1` [Example 476, 6-(3-endo-{[2-(2,4-dichlorophenoxy)-2-methylpropanoyl]amino}-8-azabicyclo[3.2.1]oct-8-yl)-N-(3,3,3-trifluoro-2-oxopropyl)pyridine-3-carboxamide], the IC50 is less than 200 nM.

For `CS(=O)(=O)c1cccc(C2(C(=O)N[C@H]3C[C@H]4CC[C@@H](C3)N4c3ccc(C(=O)NCC(F)(F)F)cn3)CC2)c1` [Example 289, 6-{3-endo-[({1-[3-(methylsulfonyl)phenyl]cyclo-propyl}carbonyl)amino]-8-azabicyclo[3.2.1]oct-8-yl}-N-(2,2,2-trifluoroethyl)pyridine-3-carboxamide], the concentration for half-maximal inhibition (IC50) was less than 2000 nM.

With `COCCNC(=O)c1ccc(N2[C@@H]3CC[C@H]2C[C@@H](NC(=O)C(C)(C)Oc2ccc(Cl)cc2Cl)C3)nc1` [Example 80, 6-[3-endo-({2-[(2,4-dichlorophenyl)oxy]-2-methylpropanoyl}amino)-8-azabicyclo[3.2.1]oct-8-yl]-N-[2-(methyloxy)ethyl]pyridine-3-carboxamide], the half-maximal inhibitory concentration (IC50) was less than 200 nM.

`O=C(NC1CC1)c1ccc(N2[C@@H]3CC[C@H]2C[C@@H](NC(=O)C2(c4ccc(Cl)cc4)CC2)C3)cc1F` [Example 119, 4-[3-endo-({[1-(4-chlorophenyl)cyclopropyl]carbonyl}amino)-8-azabicyclo[3.2.1]oct-8-yl]-N-cyclopropyl-2-fluorobenzamide]: the IC50 is less than 200 nM.

With `CC(C)(Oc1ncc(C(F)(F)F)cc1Cl)C(=O)N[C@H]1C[C@H]2CC[C@@H](C1)N2c1ccc(C(N)=O)cn1` [Example 149, 6-{3-endo-[(2-{[3-chloro-5-(trifluoromethyl)pyridin-2-yl]oxy}-2-methylpropanoyl)amino]-8-azabicyclo[3.2.1]oct-8-yl}pyridine-3-carboxamide], the IC50 is less than 200 nM.

Turning to `CC(C)(Oc1ccc(Cl)c(Cl)c1)C(=O)N[C@H]1C[C@H]2CC[C@@H](C1)N2c1ccc(S(C)(=O)=O)cn1` [Example 204, 2-[(3,4-dichlorophenyl)oxy]-2-methyl-N-{8-[5-(methylsulfonyl)pyridin-2-yl]-8-azabicyclo[3.2.1]oct-3-endo-yl}propanamide], the IC50 was less than 200 nM.

On to `CC(C)(Oc1cc(Cl)ccc1Cl)C(=O)N[C@H]1C[C@H]2CC[C@@H](C1)N2c1ccc(C(=O)NC2CC2)cn1` [Example 71, N-cyclopropyl-6-[3-endo-({2-[(2,5-dichlorophenyl)oxy]-2-methylpropanoyl}amino)-8-azabicyclo[3.2.1]oct-8-yl]pyridine-3-carboxamide], for which the half-maximal inhibitory concentration (IC50) is less than 200 nM.

In the case of `CC(C)(Oc1ccc(Cl)cc1Cl)C(=O)N[C@H]1C[C@H]2CC[C@@H](C1)N2c1ccc(C(=O)NCC(F)F)cn1` [Example 355, 6-(3-endo-{[2-(2,4-dichlorophenoxy)-2-methylpropanoyl]amino}-8-azabicyclo[3.2.1]oct-8-yl)-N-(2,2-difluoroethyl)pyridine-3-carboxamide], the IC50 is less than 200 nM.

Turning to `CC(C)(Oc1ccc(F)cc1C(F)(F)F)C(=O)N[C@H]1C[C@H]2CC[C@@H](C1)N2c1ccc(NS(C)(=O)=O)cc1` [Example 283, 2-{[4-fluoro-2-(trifluoromethyl)phenyl]oxy}-2-methyl-N-(8-{4-[(methylsulfonyl)amino]phenyl}-8-azabicyclo[3.2.1]oct-3-endo-yl)propanamide], the half-inhibitory concentration (IC50) is less than 200 nM.

On to `CC(C)(Oc1ccc(F)c(Cl)c1Cl)C(=O)N[C@H]1C[C@H]2CC[C@@H](C1)N2c1ccc(C(=O)NCC(F)(F)F)cn1` [Example 100, 6-[3-endo-({2-[(2,3-dichloro-4-fluorophenyl)oxy]-2-methylpropanoyl}amino)-8-azabicyclo[3.2.1]oct-8-yl]-N-(2,2,2-trifluoroethyl)pyridine-3-carboxamide], for which the IC50 is less than 200 nM.

For `O=C(NC1CC1)c1ccc(N2[C@@H]3CC[C@H]2C[C@@H](NC(=O)C2(c4ccc(Cl)cc4)CC2)C3)c(F)c1` [Example 148, 4-[3-endo-({[1-(4-chlorophenyl)cyclopropyl]carbonyl}amino)-8-azabicyclo[3.2.1]oct-8-yl]-N-cyclopropyl-3-fluorobenzamide], the IC50 is less than 200 nM.

In the case of `CC(C)(Oc1ccc(Cl)cc1C(F)F)C(=O)NC1CC2CCC(C1)N2c1ccc(C(=O)NCC(O)C(F)(F)F)cn1` (stereo not drawn) [Example 449, 6-[3-endo-({2-[4-chloro-2-(difluoromethyl)phenoxy]-2-methylpropanoyl}amino)-8-azabicyclo[3.2.1]oct-8-yl]-N-(3,3,3-trifluoro-2-hydroxypropyl)pyridine-3-carboxamide], the IC50 is less than 200 nM.

With `Cc1nc(N2[C@@H]3CC[C@H]2C[C@@H](NC(=O)C(C)(C)Oc2ccc(Cl)cc2)C3)ccc1C(=O)NC1CC1` [Example 51, 6-[3-endo-({2-[(4-chlorophenyl)oxy]-2-methylpropanoyl}amino)-8-azabicyclo[3.2.1]oct-8-yl]-N-cyclopropyl-2-methylpyridine-3-carboxamide], the IC50 is less than 2000 nM.

Values taken from US8163771B2, “11 β-HSD1 modulators” (Exelixis, Inc., priority 2008, dated 2012).
